In patent US8512733B2, “Stents with drug-containing amphiphilic polymer coating” (Abbott Laboratories, priority 2001, dated 2013):

Tests used:
[1] = P is the octanol/water partition coefficient; cited from earlier work
[2] = pyrene fluorescence I3/I1 ratio in different environments; type: physicochemical; details: peaks at 383 nm (I3) and 373 nm (I1), excitation 335 nm, label = environment of the pyrene
Description: Zwitterionic polymer coatings were investigated by allowing pyrene to diffuse into the polymer and studying the degree to which it is taken up, and the effects on the ratio of the fluorescence band intensities to see if there is any significant indication of the type of environment present.
The solution was used to coat polymethylmethacrylate (PMMA) fluorescence cuvettes by simply pouring into the cuvette, draining, following by an oven curing at 70° C. overnight.
The fluorescence spectrum was recorded using an excitation wavelength of 335 nm and scanned from 350-440 nm on a PE LS 50B Luminescence Spectrophotometer. Subtraction of the spectrum of each coating in water was necessary to remove the interference of a small band at 380 nm present in all methacrylate systems.
Environment information could be obtained by comparing the ratio of the intensity of the peaks at 373 nm (I1) and 383 nm (I3) (I3/I1). Where I3/I1 was similar for polymer systems, the comparative amount of pyrene present could be estimated by the maximum intensity of I1; alternatively, the entire peak area may offer an alternative measure of the comparative amount of pyrene present in different coatings. It was important to mark the side of the cuvette to ensure the same orientations were achieved each time it was replaced in the spectrophotometer.
Pyrene solution added to the coated cuvettes was allowed to stand for 16 h, the cuvette emptied and washed thoroughly with ultrapure water, refilled with ultrapure water and the fluorescence spectrum recorded. The comparative maximum height of I1 was used to estimate the relative amounts of pyrene in the coatings. This was repeated for three cuvettes of each polymer and the average taken.

[3] = Estradiol elution studies in flow-system at 37° C.; type: physicochemical; details: 100 ml/min, 500 ml PBS, 8 hour period
Description: The elution of estradiol was examined in a flow system at 37° C. and evaluated over an 8 hour period. PBS was maintained at 37° C. in six stirred reservoirs (500 ml each) within a water bath. A length of silicone tubing (3 mm internal diameter) was attached from each reservoir to one of six stent chambers (4 mm internal diameter 80 mm long) and back to the respective reservoir via a peristaltic pump. The system was pumped using a flow rate of 100 ml/min to reach equilibrium temperature of 37° C. The flow was stopped and two estradiol loaded 15 mm stents loaded as in Example 1 were placed in each of the six stent chambers, and flow recommenced. A stent was then removed at various time periods and wick dried. These were used to measure the amount of estradiol remaining on the stent. […]. Since the total volume of PBS passing over the stents in the flow model is […], it is likely that throughout the period the rate of desorption of drug from the stent was higher than the rate of absorption from the environment. This condition may not apply to the non-flow method.

[4] = Release of 17β-estradiol from stents, stirred 1000 ml PBS at 37° C.; type: physicochemical; details: five stents vigorously stirred in 1000 ml PBS at 37° C., 24 hour period
Description: The elution profile for 17β-estradiol, FIG. 6 from the stents produced in example 1.1, was assessed using an in-vitro test where five stents were vigorously stirred in a large volume (1000 ml) of PBS saline solution at 37° C. […] Aliquots of buffer were removed at various time points over a 24 hour period and analysed for 17β-estradiol content. When translated into in-vivo conditions, the release profile is predicted to be over a prolonged period of time.

porcine arteries = experiment: In vivo test on estradiol loaded stents; details: one month
[5] = Estradiol elution studies at 25° C., non-flow system; type: physicochemical; details: at 4 hours, 5 ml PBS on rollers, 15 mm DD stents from Example 1.1
Description: Elution studies were carried out at 25° C. for […] in gently agitated PBS. This was done by placing 15 mm DD stents loaded with estradiol, from Example 1.1 individually in vials containing 5 ml phosphate buffered saline (PBS) on rollers. At various time intervals up to 7 hours a 1 ml aliquot was removed and replaced with 1 ml fresh PBS. The stents and water aliquots were measured, to give the amount of drug eluted and the amount of drug remaining on the stents.

[6] = pyrene fluorescence; cited from earlier work

C[C@H]1C[C@@H]2[C@H]([C@@H](O)C[C@@]3(C)[C@H]2CC[C@]3(O)C(=O)CO)[C@@]2(C)C=CC(=O)C=C12 [MP, 6α-methylprednisolone]
log P [1]: 1.42

C=CC(=O)OCc1ccccc1 [benzyl acrylate monomer, benzyl acrylate]
I3/I1 ratio [2]: 0.75

C[C@]12CC[C@@H]3c4ccc(O)cc4CC[C@H]3[C@@H]1CC[C@@H]2O [estradiol, 17β-estradiol]
elution compared with Example 2 [3]: eluted relatively more quickly
release from stent [4]: sustained release
Re-endothelialization scores (porcine arteries): does not inhibit the healing process
estradiol still remaining on the stent [5]: 62%

C=C(C)C(=O)OCCCCCCCCCCCC [lauryl methacrylate]
I3/I1 ratio [2]: 1.029

O [water]
I3/I1 ratio [2]: 0.633
I3/I1 ratio, literature value [6]: 0.63
